Experimental data published in patent US20050032761A1, “Lipid profile modulation” (priority 2001, published 2005).

Legend:
[1] = Food intake and body weight in lean and obese Zucker rats treated with carbenoxolone; type: in vivo; settings: lean or obese animals; 50 mg/kg by gavage daily, three weeks
Description: Groups of eight 5-week-old male obese and lean Zucker rats (Harlan Orlac, Bicester, UK) were characterised by phenotype; maintained under controlled conditions of light (on 0800 h-2000 h) and temperature (21° C.) and allowed free access to standard rat chow. (Special Diet Services, Witham, UK) and drinking water. Drug treatment—Drug treatment was commenced when the animals were 6 weeks of age. […] Animals were weighed regularly to allow accurate dosing with drugs, and to follow the progress of weight gain. Food intake for each cage of 4 animals was measured daily. After two weeks of treatment animals underwent an oral glucose tolerance test, which consisted of an overnight fast, followed by an oral glucose load of 2 g/kg body weight at 0900 h. Blood samples were taken by tail-nick at 0, 30 and 120 min after the glucose bolus.

[2] = Oral glucose tolerance test in lean and obese Zucker rats; type: in vivo
Description: Drug treatment—Drug treatment was commenced when the animals were 6 weeks of age. […] Animals were weighed regularly to allow accurate dosing with drugs, and to follow the progress of weight gain. Food intake for each cage of 4 animals was measured daily. After two weeks of treatment animals underwent an oral glucose tolerance test, which consisted of an overnight fast, followed by an oral glucose load of 2 g/kg body weight at 0900 h. Blood samples were taken by tail-nick at 0, 30 and 120 min after the glucose bolus. […] Glucose concentrations were determined using a hexokinase glucose assay kit (Sigma, Poole, UK), for which the inter- and intra-assay coefficients of variation were both <2%.

[3] = Non-fasting plasma lipid levels in lean and obese Zucker rats; type: in vivo
Description: Drug treatment—Drug treatment was commenced when the animals were 6 weeks of age. […] Animals were weighed regularly to allow accurate dosing with drugs, and to follow the progress of weight gain. Food intake for each cage of 4 animals was measured daily. After two weeks of treatment animals underwent an oral glucose tolerance test, which consisted of an overnight fast, followed by an oral glucose load of 2 g/kg body weight at 0900 h. Blood samples were taken by tail-nick at 0, 30 and 120 min after the glucose bolus. […] Lipid levels were measured in plasma prepared from terminal blood samples collected at 0900-1100 h. Triglycerides, total cholesterol and HDL cholesterol were measured using […] (TG, CHOL and HDL C-plus respectively) from Roche Diagnostics, Mannheim, Germany. Non-esterified fatty acids (NEFAs) were measured using the Wako NEFA C enzymatic assay (Alpha Laboratories Ltd, Hampshire, UK).

5β-reductase [4] = target: T1, 5β-reductase (Rattus norvegicus, UniProt P31210); assay: Hepatic 5β-reductase activity in liver cytosol after carbenoxolone administration; type: in vivo, Zucker rats; settings: obese animals
T1 construct: conversion of [^3H]-corticosterone to [^3H]-5β-tetrahydrocorticosterone in liver cytosol preparations; from tissue; host or cells: Zucker rat liver cytosol
T1 sequence (P31210 1-326): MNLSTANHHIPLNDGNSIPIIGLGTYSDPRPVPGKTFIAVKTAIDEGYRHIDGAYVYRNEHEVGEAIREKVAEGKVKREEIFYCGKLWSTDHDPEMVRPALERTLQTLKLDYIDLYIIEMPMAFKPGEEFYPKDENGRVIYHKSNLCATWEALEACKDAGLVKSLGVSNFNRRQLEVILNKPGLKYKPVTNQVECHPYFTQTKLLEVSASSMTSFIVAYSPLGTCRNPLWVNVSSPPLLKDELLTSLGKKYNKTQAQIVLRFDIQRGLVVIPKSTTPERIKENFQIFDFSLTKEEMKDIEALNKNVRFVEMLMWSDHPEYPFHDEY
Description: (§1) Drug treatment—Drug treatment was commenced when the animals were 6 weeks of age. […] Animals were weighed regularly to allow accurate dosing with drugs, and to follow the progress of weight gain. Food intake for each cage of 4 animals was measured daily. After two weeks of treatment animals underwent an oral glucose tolerance test, which consisted of an overnight fast, followed by an oral glucose load of 2 g/kg body weight at 0900 h. Blood samples were taken by tail-nick at 0, 30 and 120 min after the glucose bolus.
5β-Reductase activity in the liver was assessed by the conversion of [^3H]-corticosterone to [^3H]-5β-tetrahydrocorticosterone in liver cytosol preparations. The sub-cellular localisation and cofactor preference of 11β-HSD1 and 5β-reductase differ such that the enzyme activities can be measured independently of one another. Liver cytosol was prepared by repeated centrifugation according to the method of (Fleischer & Kervina 1974). Enzyme activity was measured by incubating cytosol (100 μg protein/ml) in duplicate at 37° C., in phosphate buffer (40 mM Na2PO4, 320 mM sucrose, 1 mM dithiothreitol, pH 7.5) containing NADPH (1 mM) and [^3H]-corticosterone (150 nM). […] Steroids were separated by HPLC using a reverse phase C8 column at 10° C., and quantified by on-line liquid scintillation counting. […]

[5] = Hypothalamic pituitary adrenal axis: adrenal weight and plasma corticosterone in Zucker rats; type: in vivo
Description: as §1, with “bolus. […] Plasma assays—Corticosterone levels were measured in plasma prepared from terminal blood samples collected at 0900-1100 h using an in-house radioimmunoassay (74). The inter- and intra-assay coefficients of variation were<10%.” for “bolus.”

11β-HSD1 [6] = target: T2, 11β-HSD1 (Homo sapiens, UniProt P28845); settings: humans; cited from earlier work
T2 construct: host or cells: human subjects in vivo
T2 sequence (P28845 whole entry): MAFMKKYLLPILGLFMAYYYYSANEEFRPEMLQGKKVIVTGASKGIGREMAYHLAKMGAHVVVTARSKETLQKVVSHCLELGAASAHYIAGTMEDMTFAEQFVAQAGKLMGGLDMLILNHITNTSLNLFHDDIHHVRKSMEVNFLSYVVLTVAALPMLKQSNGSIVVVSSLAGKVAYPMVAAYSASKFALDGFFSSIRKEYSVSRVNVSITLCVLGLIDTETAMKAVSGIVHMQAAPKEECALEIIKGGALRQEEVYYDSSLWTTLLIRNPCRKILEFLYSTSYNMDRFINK

[7] = Carbenoxolone randomised double-blind crossover study, fasting plasma lipids; settings: men with type 2 diabetes mellitus and healthy controls, vs placebo
Description: Fasting levels of plasma lipids are shown.

11β-HSD1 [8] = target: T3, 11β-HSD1 (Rattus norvegicus, UniProt P16232); assay: 11β-HSD1 activity in tissue homogenates after carbenoxolone administration; design: from tissue; host or cells: Zucker rat liver, quadriceps skeletal muscle, subcutaneous lumbar fat, omental fat homogenates; species or system Zucker rats; settings: ex vivo, liver; lean and obese animals
T3 sequence (P16232 whole entry): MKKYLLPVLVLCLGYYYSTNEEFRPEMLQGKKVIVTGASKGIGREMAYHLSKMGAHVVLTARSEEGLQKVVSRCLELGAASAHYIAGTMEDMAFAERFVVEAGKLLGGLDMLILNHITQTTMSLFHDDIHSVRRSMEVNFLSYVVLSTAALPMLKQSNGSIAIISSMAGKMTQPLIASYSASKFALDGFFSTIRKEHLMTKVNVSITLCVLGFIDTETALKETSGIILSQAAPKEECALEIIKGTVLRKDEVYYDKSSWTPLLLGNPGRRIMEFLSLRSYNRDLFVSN
Description: as §1
Measurement of enzyme activities in vitro—11β-HSD1 activity was measured in homogenates of tissues by incubating in duplicate at 37° C., in Krebs Ringer buffer containing glucose (0.2%), NADP (2 mM) and 1,2,6,7-[^3H]4-corticosterone (100 nM). Conditions were optimised for each tissue to ensure first order kinetics, by adjusting protein concentrations as follows: 10 μg/ml for liver; 1.5 mg/ml for quadriceps skeletal muscle; 0.5 mg/ml for subcutaneous lumbar fat and 1 mg/ml for omental fat. […] Steroids were separated by HPLC using a reverse phase μ-Bondapak C18 column at 20° C. and quantified by on-line liquid scintillation counting. No peaks other than ^3H-corticosterone and ^3H-11-dehydrocorticosterone were detected under these conditions.

[9] = tested on: glucocorticoid receptor-mediated response in human skin; assay: Skin blanching after topical application to forearm skin; type: in vivo; settings: applied together with beclomethasone, 12 healthy humans
Description: The intensity of skin blanching was recorded the following day by two observers who were blind to the order of application of steroid solutions, as described (80).

5β-reductase [10] = target: T4, 5β-reductase (Homo sapiens, UniProt P51857); settings: reported (70); cited from earlier work
T4 sequence (P51857 1-326): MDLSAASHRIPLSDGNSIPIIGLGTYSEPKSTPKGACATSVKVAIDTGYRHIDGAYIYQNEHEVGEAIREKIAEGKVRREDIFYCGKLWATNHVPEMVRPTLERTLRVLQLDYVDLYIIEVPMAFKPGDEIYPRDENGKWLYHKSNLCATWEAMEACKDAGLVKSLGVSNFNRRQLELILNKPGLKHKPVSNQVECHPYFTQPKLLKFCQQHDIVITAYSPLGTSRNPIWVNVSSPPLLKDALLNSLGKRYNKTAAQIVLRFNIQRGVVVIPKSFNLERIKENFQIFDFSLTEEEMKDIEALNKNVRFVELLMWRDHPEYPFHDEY

11β-HSD1 [11] = target: T3, 11β-HSD1; assay: Incubation of beclomethasone with homogenised rat liver; type: in vitro ADME; design: incubation of beclomethasone with homogenised rat liver; from tissue; host or cells: homogenised rat liver; settings: HPLC, UV 254 nm
[12] = non-fasting plasma, obese animals

In the case of `CC1(C)[C@@H](OC(=O)CCC(=O)O)CC[C@]2(C)[C@H]3C(=O)C=C4[C@@H]5C[C@@](C)(C(=O)O)CC[C@]5(C)CC[C@@]4(C)[C@]3(C)CC[C@@H]12` [Carbenoxolone], the body weight [1] is reported as “no effect”, the food intake [1] is reported as “no effect” and the plasma insulin ([2]; 30 min after glucose, both lean and obese animals) is reported as “increased”. The plasma insulin ([2]; 120 min after glucose, obese animals) was “increased”, the glucose tolerance ([2]; Zucker rats) was “no effect” and the plasma insulin ([2]; fasting state, both lean and obese animals) was “increased”. The plasma glucose ([2]; lean and obese, fasting and after oral glucose load, two weeks of treatment) was “no significant effect”, the “non-fasting plasma NEFAs” value ([3]; all groups, lean and obese) was “not different” and the total cholesterol ([3]; non-fasting plasma, lean and obese rats, three weeks of treatment) was “not affected”. The HDL cholesterol [3, 12] was “increased”, the triglycerides [3, 12] was “reduced” and the “hepatic 5β-reductase activity (conversion of corticosterone to 5β-tetrahydrocorticosterone)” value (5β-reductase [4]) was “exacerbated the increase”. For the same compound, the plasma corticosterone levels ([5]; lean and obese, terminal blood, trend for carbenoxolone to increase) was “no statistically significant differences”, the adrenal weight ([5]; lean animals) was “no effect” and the “adrenal weight (adrenal hypertrophy)” value ([5]; obese rats) was “ameliorated”. The “amount of glucose required to maintain normoglycemia” value (11β-HSD1 [6]) was “increases”, the forearm glucose uptake (11β-HSD1 [6]) was “without altering” and the “HDL (high density lipoprotein) cholesterol concentrations” value [7] was “raised”. For the same compound, the total cholesterol [7] was “did not affect”, the triglyceride concentrations [7] was “lowered” and the “hepatic 11β-HSD1 activity (conversion of corticosterone to 11-dehydrocorticosterone)” value (11β-HSD1 [8]) was “inhibition”.

For `CC1(C)[C@@H](O)CC[C@]2(C)[C@H]3C(=O)C=C4[C@@H]5C[C@@](C)(C(=O)O)CC[C@]5(C)CC[C@@]4(C)[C@]3(C)CC[C@@H]12` [Glycyrrhetinic acid], the “blanching response to beclomethasone (area under the dose-response curve)” value [9] is given as “reduced” and the “inhibition of 5β-reductase” value (5β-reductase [10]) is given as “inhibit”.

In the case of `C[C@H]1C[C@H]2[C@@H]3CCC4=CC(=O)C=C[C@]4(C)[C@@]3(Cl)[C@@H](O)C[C@]2(C)[C@@]1(O)C(=O)CO` [beclomethasone], the “conversion of beclomethasone to 11-dehydrobeclomethasone” value (11β-HSD1 [11]) is reported as “substrate”.
